In patent publication US6166013A, “Glucocortiocoid-selective agents” (Abbott Laboratories, priority 1999, dated 2000):
Read-outs that look alike come from different tables or passages of the source.

Columns and labels:
[1] = biological target: T1, human glucocorticoid receptor-α [GRX] isoform (Homo sapiens, UniProt P04150); assay: glucocorticoid receptor (GR) cytosol binding assay, [3H]-dexamethasone; details: displacement of [3H]-Dex (~0.9 nM), 4° C. overnight
T1 construct: purchased Ligand Pharmaceuticals (San Diego, Calif.); host or cells: insect SF21 cells (baculovirus)
T1 sequence (P04150 1-777): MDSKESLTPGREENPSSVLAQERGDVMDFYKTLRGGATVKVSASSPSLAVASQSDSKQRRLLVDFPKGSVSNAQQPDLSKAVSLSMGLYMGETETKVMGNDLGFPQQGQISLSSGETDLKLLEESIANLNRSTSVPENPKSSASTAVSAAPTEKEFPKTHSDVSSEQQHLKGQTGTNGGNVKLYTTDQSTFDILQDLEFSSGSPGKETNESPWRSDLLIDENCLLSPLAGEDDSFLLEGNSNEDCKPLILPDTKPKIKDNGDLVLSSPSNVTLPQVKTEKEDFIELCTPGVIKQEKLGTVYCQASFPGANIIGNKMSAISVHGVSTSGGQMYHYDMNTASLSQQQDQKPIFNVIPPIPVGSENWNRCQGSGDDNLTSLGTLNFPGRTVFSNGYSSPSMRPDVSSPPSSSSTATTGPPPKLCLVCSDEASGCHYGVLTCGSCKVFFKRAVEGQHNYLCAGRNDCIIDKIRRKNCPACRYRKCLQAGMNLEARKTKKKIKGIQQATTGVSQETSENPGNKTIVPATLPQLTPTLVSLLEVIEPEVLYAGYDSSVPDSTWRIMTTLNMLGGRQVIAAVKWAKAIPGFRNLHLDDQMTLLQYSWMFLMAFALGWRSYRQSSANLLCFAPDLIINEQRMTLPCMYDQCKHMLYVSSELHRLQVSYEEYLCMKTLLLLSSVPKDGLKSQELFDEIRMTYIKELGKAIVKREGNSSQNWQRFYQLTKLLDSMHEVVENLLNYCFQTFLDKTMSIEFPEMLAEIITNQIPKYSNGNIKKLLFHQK
Description: Briefly, cytosol preparations of human glucocorticoid receptor-α [GRX] isoform and human progesterone receptor-A [PRA] isoform were obtained from Ligand Pharmaceuticals (San Diego, Calif.). Both receptor cDNAs were cloned into baculovirus expression vectors and expressed in insect SF21 cells. [^3 H]-dexamethasone (Dex, specific activity 82-86 Ci/mmole) and [^3 H]-progesterone (Prog, specific activity 97-102 Ci/mmol) were purchased from Amersham Life Sciences (Arlington Heights, Ill.). Glass fiber type C multiscreen MAFC NOB plates were from Millipore (Burlington, Mass.). Hydroxyapatide Bio-Gel HTP gel was obtained from Bio-Rad Laboratories (Hercules, Calif.). Tris(hydroxymethyl)aminomethane (Tris), ethylenediaminetetraacetic acid (EDTA), glycerol, dithiothreitol (DTT) and sodium moylybdate were obtained from Sigma Chemicals (St. Louis, Mo.). […]
After an overnight incubation, 50 μL of hydroxyapatite (25% weight/volume) slurry were added to each well and plates were incubated for 10 min at 4° C. in a plate shaker. […] The amount of radioactivity was determined with a Packard TopCount plate reader.
The Ki of test compounds was determined using the Cheng-Prusoff equation Ki =IC50 /(1+[L*]/[KL ]) where L* is the concentration of radioligand and KL is the dissociation constant of the radioligand determined from saturation analysis.

[2] = biological target: T2, human estrogen receptor-alpha (Homo sapiens, UniProt P03372); assay: soluble estrogen receptor-alpha (ER-α) binding assay, [3H]-estradiol
T2 construct: made in house; host or cells: yeast strain BJ2168 (copper induced)
T2 sequence (P03372 1-595): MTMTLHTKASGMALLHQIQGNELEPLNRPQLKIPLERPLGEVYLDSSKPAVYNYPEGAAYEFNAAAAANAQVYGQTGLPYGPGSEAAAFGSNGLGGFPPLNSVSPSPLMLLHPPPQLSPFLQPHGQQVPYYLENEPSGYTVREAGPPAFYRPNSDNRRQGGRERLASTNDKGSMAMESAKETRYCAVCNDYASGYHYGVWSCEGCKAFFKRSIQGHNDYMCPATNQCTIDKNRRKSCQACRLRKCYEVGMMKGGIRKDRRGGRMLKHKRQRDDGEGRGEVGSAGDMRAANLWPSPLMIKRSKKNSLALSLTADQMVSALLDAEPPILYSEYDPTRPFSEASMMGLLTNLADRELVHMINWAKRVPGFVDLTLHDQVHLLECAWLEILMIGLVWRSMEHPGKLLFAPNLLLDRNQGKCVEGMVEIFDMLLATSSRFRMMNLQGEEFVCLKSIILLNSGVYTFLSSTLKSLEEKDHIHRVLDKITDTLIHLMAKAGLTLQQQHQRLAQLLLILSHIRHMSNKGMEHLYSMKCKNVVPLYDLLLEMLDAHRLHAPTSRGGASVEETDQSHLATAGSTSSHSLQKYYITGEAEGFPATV
Description: For soluble estrogen receptor-alpha (ER-α) binding assays, [^3 H]- Estradiol (120-140 Ci/mmol) was purchased from New England Nuclear (Boston, Mass.), 17-beta estradiol was purchased from Sigma Chemical Co. (St. Louis, Mo.), CHAPS and DTT were purchased from Boehringer Mannheim GmbH (W. Germany) and all other reagents were purchased from Sigma.
The human estrogen receptor-alpha cDNA was cloned into a yeast vector termed pYhERα and used to transform wild type yeast strain BJ2168 following the protocol outlined by Pham, T. A., Hwung Y. P., Santiso-Mere,D., McDonnell D. P., O'Malley, B. W., Ligand-Dependent and Independent Function of the Transactivation Regions of the Human Estrogen Receptor in Yeast, Mol. Endocrinol. […] The yeast was induced with copper for 16 hours after which the cells were harvested, washed and the receptor extract prepared in cold buffer via a Bead Beater (BioSpec Products, Bartlesville, Okla.). Aliquots of the receptor typically contained 5-10 mg/ml of total protein and were stored at -80° C. until used. Estradiol or other competing compounds were prepared as 5 mM stock solutions in either 100% ethanol or DMSO and serial dilutions were carried out in 1:1 DMSO-ethanol. The assay buffer consisted of the following: 300 mM potassium chloride, 10 mM Trizma Base, 2 mM DTT and 5 mM CHAPS, pH=7.5 at room temperature.
Assays were set up using a 96-well minitube system and incubations were carried out at 4° C. for 18 hours. Equilibrium under these conditions of buffer and temperature was achieved by 6-8 hours. Nonspecific binding was defined as that binding remaining in the presence of 1000 nM unlabeled estradiol. […] The amount of receptor-ligand complex was determined by liquid scintillation counting of the hydroxyapatite pellet after the addition of […] EcoScint A scintillation cocktail from National Diagnostics (Atlanta, Ga.).
After correcting for nonspecific binding, IC50 values were determined. […] The IC50 values were determined graphically from a log-logit plot of the data.

[3] = displacement of [3H]-estradiol (2-3 nM), 4° C., 18 hours, read-out: Ki ER-α

Structure (SMILES) | Ki [1] [µM] | Ki [2, 3] [µM] | other results
CN(C)c1ccc(C(c2ccc(N(C)C)cc2)c2cc(NC(=O)/C=C/c3ccc([N+](=O)[O-])cc3)ccc2Cl)cc1 [Example 61, 4',4"bis(dimethylamino)-2-chloro-5-(4-nitrocinnamido)triphenylmethane] | 4.6 |  | 
CN(C)c1ccc(C(c2ccc(N(C)C)cc2)c2cc(Cl)ccc2Cl)cc1 [Example 24, 4',4"bis(dimethylamino)-2,5-dichlorotriphenylmethane] |  |  | Ki [2]: > 10 µM
CC(=O)OCCN(C)c1ccc(C(c2ccc(N(C)CCOC(C)=O)cc2)c2cc([N+](=O)[O-])ccc2Cl)cc1 [Example 31, 4',4"bis(N-(2-acetoxyethyl) N-methylamino)-2-chloro-5-nitrotriphenylmethane] |  | > 10 | 
CN(CCO)c1ccc(C(c2ccc(N(C)CCO)cc2)c2cc([N+](=O)[O-])ccc2Cl)cc1 [Example 32, 4',4"bis(N-(2-hydroxyethyl) N-methylamino)-2-chloro-5-nitrotriphenylmethane] |  | > 10 | 
CN(C(=O)OC(C)(C)C)c1ccc(C(c2ccc(N(C)C(=O)OC(C)(C)C)cc2)c2cc([N+](=O)[O-])ccc2Cl)cc1 [Example 35, 4',4"bis(N-(t-butoxycarbonyl) N-methylamino)-2-chloro-5-nitrotriphenylmethane] | 4.56 |  | 
